Test results taken from patent US6809112B2, “Method of treating sexual disturbances” (priority 1999, dated 2004).

Key:
[1] = system: patient with Male Erectile Disorder; experiment: Treatment of Male Erectile Disorder (Examples C, K); assay type: in vivo, human; conditions: 3 mg/dose 0.5 hr before sexual activity; examined after one month; patient report
Excerpt: A 75 kg, patient has been married for 20 years. They present complaining that for the past six months they have had difficulty maintaining an erection until completion of sexual intercourse. They develop an adequate erection at the beginning of sexual activity but detumescence occurs when they attempt penetration. Their spouse is their only current sexual partner. They report that their spouse is patient and understanding of their problem but that they are embarrassed, feels that they are a failure, and is growing progressively more angry and sad about their inability to maintain an erection. They masturbate approximately twice each month. During masturbation, they are usually able to maintain an erection until they ejaculate. […] The only remarkable findings were a supine diastolic blood pressure 94 mm mercury and a total plasma cholesterol level of 230 mg/dl. They were instructed to follow the American Heart Association dietary recommendations and to reduce their body weight by 5 kg. They currently take no prescription drugs. […] The patient is diagnosed as having Male Erectile Disorder that is acquired and situational. The etiology is most likely due to psychological factors, although combined factors, e.g., mild hypertension or atherosclerosis, may contribute (Diagnostic and Statistical Manual of Mental Disorders, Fourth Edition, 1994). (5R)-(methylamino)-5,6-dihydro-4H-imidazo[4,5,1-ij]quinolin-2(1H)-one (Z)-2-butenedioate (1:1) is prescribed at 3 mg/dose to be taken 0.5 hr before the patient intends to engage in sexual activity. The patient is instructed that they may use the drug on a daily basis, if this is the intended frequency of sexual activity. The patient is examined after one month. They report that they use the drug prior to intercourse. […] The patient is instructed to continue using the drug.

[2] = system: patient with Male Orgasmic Disorder; experiment: Treatment of Male Orgasmic Disorder (Examples E, M); assay type: in vivo, human; conditions: 3 mg/dose 0.5-1 hr before sexual activity; examined after one month; patient report
Excerpt: A 80 kg, person has been married for 15 years. They present complaining that they have begun to have difficulty achieving an orgasm during vaginal intercourse with their spouse. On most occasions they are unable to ejaculate during sexual intercourse. Infrequently, they are able to ejaculate during sexual, but only after very prolonged vaginal intercourse. […] Their further reports that their spouse finds the prolonged intercourse that they require to ejaculate uncomfortable and has begun avoiding sexual relations. They report that they ejaculate normally when they masturbate. […] They currently take no prescription drugs. […] The patient is diagnosed as having Male Orgasmic Disorder that is acquired and situational due to psychological factors (Diagnostic and Statistical Manual of Mental Disorders, Fourth Edition, 1994). (5R)-(methylamino) -5,6-dihydro-4H-imidazo[4,5,1-ij]quinolin-2(1H)-one (Z)-2-butenedioate (1:1) is prescribed at 3 mg/dose to be taken 0.5-1 hr before the patient intends to engage in sexual activity. The patient is instructed that they may use the drug on a daily basis, if this is the intended frequency of sexual activity. The patient is examined after one month. […] The patient is instructed to continue using the drug.

[3] = system: patient with erectile dysfunction and hypoactive sexual desire disorder; experiment: Treatment of patient with erectile dysfunction and Hypoactive Sexual Desire Disorder, combination with sildenafil (Examples H, P); assay type: in vivo, human; conditions: 3 mg/dose in combination with sildenafil (VIAGRA Tablets) 50 mg/dose, orally about 0.5 hr before sexual activity, 2-3 times per week; after one month
Excerpt: A 70 kg patient is apparently in good health. They present complaining of a loss of sexual desire and frequent erectile dysfunction since taking an executive position in their company, six weeks previously. They report that they work long hours and feels a high degree of pressure associated with their job. They are frustrated and angry that when they take time off from work they are unable to have an intimate relationship with their spouse. They report that although they are periodically interested in initiating sexual relations, on most occasions they are unable to maintain a high level of interest sufficiently long to initiate or to adequately respond to their spouse's initiating sexual activity. […] They develop a semi-rigid erection at the beginning of sexual activity but detumescence occurs when they attempt penetration. They report that they have few erotic fantasies. They have not masturbated for the past several months. They attribute this to a lack of motivation and interest. […] (5R)-(methylamino)-5,6-dihydro-4H-imidazo[4,5,1-ij]quinolin-2(1H)-one (Z)-2-butenedioate (1:1), 3 mg/dose, and sildenafil (VIAGRA Tablets), 50 mg/dose, are both prescribed. Each is to be taken orally about 0.5 hr before the patient intends to engage in sexual activity. The patient is instructed that they may use the drug combination on a daily basis, if this is the intended frequency of sexual activity. The patient is examined after one month. They report that they take the drug combination 2-3 times per week. […] The patient is advised to continue taking the (5R)-(methylamino)-5,6-dihydro-4H-imidazo[4,5,1-ij]quinolin-2(1H)-one (Z)-2-butenedioate (1:1) for another six months as they adapt to the situational stress associated with their new job. After this time they are advised to stop taking the drug for a period of two weeks to determine whether their sexual motivation and desire have returned to the level they enjoyed prior to the change in jobs.

[4] = system: patient with idiopathic epilepsy and hypogonadism, secondary to chronic carbamazepine treatment; experiment: Treatment of reduced sexual function in a person with idiopathic epilepsy (Examples G, O); assay type: in vivo, human; conditions: 3 mg/dose 0.5 hr before sexual activity, 2-3 times per week; carbamazepine 500 mg/day; examined after one month
Protocol: A 75 kg patient has idiopathic epilepsy. They first presented with primary generalized seizures and was diagnosed with idiopathic epilepsy. They have been treated with carbamazepine. Currently they receive 500 mg/day of the drug. They have had two tonic-clonic seizures during the preceding year. The patient complains of diminished sexual interest in their spouse of 8 years. On those occasions when they attempt sexual intercourse, they are able to maintain an erection sufficient for intercourse one-third of the time. […] They report that they rarely have sexual fantasies and rarely masturbates. […] They currently take no prescription drugs other than carbamazepine. […] Plasma testosterone and sex hormone binding globulin assays are performed. The plasma testosterone level is 25 nM, which is considered normal. The plasma sex hormone binding globulin level is 55 nM, which is considered elevated compared to the normal range. The patient is diagnosed with hypogonadism, secondary to chronic carbamazepine treatment (Epilepsia 36: 366-370, 1995). (5R)-(methylamino)-5,6-dihydro-4H-imidazo[4,5,1-ij]quinolin-2(1H)-one (Z)-2-butenedioate (1:1) is prescribed at 3 mg/dose to be taken 0.5 hr before the patient intends to engage in sexual activity. The patient is instructed that they may use the drug on a daily basis, if this is the intended frequency of sexual activity. The patient is examined after one month. They report that they take the drug 2-3 times per week. […] The patient is instructed to continue with the treatment.

SMILES | treatment effect (quality of sexual relationship) [1] | melting point [°C] | treatment effect (quality of sexual relationship) [2] | treatment effect (sexual relationship) [3] | treatment effect (sexual relationship) [4] | ejaculation [1] | maintenance of erection [1] | ejaculation during vaginal intercourse [2] | maintenance of erection [3] | sexual fantasies [3] | sexual motivation [3] | sexual interest and initiation of sexual activity [4]
CN[C@@H]1Cc2cccc3[nH]c(=S)n(c23)C1 [(5R)-5-(Methylamino)-5,6-dihydro-4H-imidazo[4,5,1-ij]quinoline-2(1H)-thione] | same positive treatment effect | 210 to 213 | same positive treatment effect | same positive treatment effect | same positive treatment effect | – | – | – | – | – | – | –
CN[C@@H]1Cc2cccc3[nH]c(=O)n(c23)C1.O=C(O)/C=C\C(=O)O [(5R)-(methylamino)-5,6-dihydro-4H-imidazo[4,5,1-ij]quinolin-2(1H)-one (Z)-2-butenedioate (1:1)] | markedly improved | – | markedly improved | enjoys an improved sexual relationship with their partner | enjoys a normal sexual relationship | usually experiences intra-vaginal ejaculation | maintains an erection for a satisfactory period after vaginal penetration in almost every attempt at intercourse | ejaculates during vaginal intercourse on all occasions | no difficulty maintaining an erection to completion of sexual intercourse | readily has sexual fantasies that are sustained during sexual intercourse | feels motivated to initiate sexual activity | feels more interest in sex and usually initiates sexual activity with their spouse
